pEC50: −log10 of the molar value. Like-named read-outs stand apart in the source and are kept apart here.
Columns and labels:
[1] = tested on: HIV-1 (IIIB) in MT-4 cells; assay: MT-4 HIV assay; assay type: cell-based; details: Human immunodeficiency virus 1, MT4, 120 h
Procedure, shortened: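 Antiviral activity was read by Cell Titer Glo after a 5-day, 37 °C culture of MT-4 cells pre-infected with a 1:250 dilution of HIV-1 (IIIB). Compounds were tested as threefold dilution series in complete RPMI. Controls were no drug, mock infection and 5 uM AZT.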

[2] = Method: Liver Microsomal Stability Protocol
Test compounds and one control compound (verapamil) were tested in 3 different species in duplicate sets.
Test compound concentration: 1 uM; Protein concentration: 0.5 mg/mL (for dog, rat, and human liver microsomes); Cofactor: NADPH-Regenerating system (NRS) solution; Time-points: 2, 12, 25, 45, and 65 minutes.
Reaction composition (in each incubation well) contains:
After plates were vortexed, they were centrifuged for 30 minutes to remove proteins. About 100 μL supernatant was removed to a new plate and diluted with 150 μL water. About 20 μL of the mixture was injected into LC/MS/MS system to monitor the compound's response. In vitro measured t1/2 was used to calculate Clint values.

[3] = HIV-1 (IIIB), MT-4 cells, 5 days, Cell Titer Glo, read-out: EC50
[4] = human liver microsomes 0.5 mg/mL, 1 uM compound, NADPH
[5] = rat liver microsomes 0.5 mg/mL, 1 uM compound, NADPH

Row | Human Pred Cl. [2, 4] | Rat. Pred. Cl. [2, 5] | Structure (SMILES) | pEC50 [1, 3] | Human Pred Cl. ([2]; human, microsomes) | Rat. Pred. Cl. ([2]; rat, microsomes) | pEC50 [1]
1 | – | – | COC(=O)N[C@H](C(=O)N[C@@H](Cc1ccc(-c2cnc(N3CC4CCC(C3)N4C3COC3)nc2)cc1)[C@@H](O)CN(Cc1c(F)cc(-c2ccn(C3CC3)n2)cc1F)NC(=O)[C@@H](NC(=O)OC)C(C)(C)C(F)(F)F)C(C)(C)C(F)(F)F [Example 198, methyl ((5S,8S,9S,14S)-11-(4-(1-cyclopropyl-1H-pyrazol-3-yl)-2,6-difluorobenzyl)-16,16,16-trifluoro-9-hydroxy-15,15-dimethyl-8-(4-(2-(8-(oxetan-3-yl)-3,8-diazabicyclo[3.2.1]octan-3-yl)pyrimidin-5-yl)benzyl)-3,6,13-trioxo-5-(1,1,1-trifluoro-2-methylpropan-2-yl)-2-oxa-4,7,11,12-tetraazahexadecan-14-yl)carbamate] | 8.66 | <0.11 L/H/kg | 0.33 L/H/kg | –
2 | 0.15 L/H/kg | 0.54 L/H/kg | COC(=O)N[C@H](C(=O)N[C@@H](Cc1ccc(C#Cc2ccc(N3C[C@@H]4C[C@H]3CN4C3COC3)nc2)cc1)[C@@H](O)CN(Cc1c(F)cc(-c2ccn(C3CC3)n2)cc1F)NC(=O)[C@@H](NC(=O)OC)C(C)(C)C(F)(F)F)C(C)(C)C(F)(F)F [Example 39, Methyl ((5S,8S,9S,14S)-11-(4-(1-cyclopropyl-1H-pyrazol-3-yl)-2,6-difluorobenzyl)-16,16,16-trifluoro-9-hydroxy-15,15-dimethyl-8-(4-((6-((1S,4S)-5-(oxetan-3-yl)-2,5-diazabicyclo[2.2.]heptan-2-yl)pyridin-3-yl)ethynyl)benzyl)-3,6,13-trioxo-5-(1,1,1-trifluoro-2-methylpropan-2-yl)-2-oxa-4,7,11,12-tetraazahexadecan-14-yl)carbamate] | – | – | – | 8.59
3 | 0.14 L/H/kg | 0.67 L/H/kg | COC(=O)N[C@H](C(=O)NN(Cc1c(F)cc(-c2ccn(C3CC3)n2)cc1F)C[C@H](O)[C@H](Cc1ccc(C#Cc2ccc(N3C[C@H]4C[C@@H]3CN4C3COC3)nc2)cc1)NC(=O)[C@@H](NC(=O)OC)C(C)(C)C(F)(F)F)C(C)(C)C [Example 90, Methyl ((5S,8S,9S,14S)-11-(4-(1-cyclopropyl-1H-pyrazol-3-yl)-2,6-difluorobenzyl)-9-hydroxy-15,15-dimethyl-8-(4-((6-((1R,4R)-5-(oxetan-3-yl)-2,5-diazabicyclo[2.2.1]heptan-2-yl)pyridin-3-yl)ethynyl)benzyl)-3,6,13-trioxo-5-(1,1,1-trifluoro-2-methylpropan-2-yl)-2-oxa-4,7,11,12-tetraazahexadecan-14-yl)carbamate] | – | – | – | 8.46
4 | – | – | COC(=O)N[C@H](C(=O)N[C@@H](Cc1ccc(C#Cc2ccc(N3CC4CCC(C3)N4C3COC3)nc2C)cc1)[C@@H](O)CN(Cc1c(F)cc(-c2ccccn2)cc1F)NC(=O)[C@@H](NC(=O)OC)C(C)(C)C(F)(F)F)C(C)(C)C(F)(F)F [Example 78, Methyl ((5S,8S,9S,14S)-11-(2,6-difluoro-4-(pyridin-2-yl)benzyl)-16,16,16-trifluoro-9-hydroxy-15,15-dimethyl-8-(4-((2-methyl-6-(8-(oxetan-3-yl)-3,8-diazabicyclo[3.2.1]octan-3-yl)pyridin-3-yl)ethynyl)benzyl)-3,6,13-trioxo-5-(1,1,1-trifluoro-2-methylpropan-2-yl)-2-oxa-4,7,11,12-tetraazahexadecan-14-yl)carbamate] | 8.20 | <0.11 L/H/kg | <0.18 L/H/kg | –
5 | – | – | COC(=O)N[C@H](C(=O)N[C@@H](Cc1ccc(C#Cc2ccc(N3CC4COCC(C3)N4C)nc2)cc1)[C@@H](O)CN(Cc1c(F)cc(-c2ccn(C(F)F)n2)cc1F)NC(=O)[C@@H](NC(=O)OC)C(C)(C)C(F)(F)F)C(C)(C)C(F)(F)F [Example 44, Methyl ((5S,8S,9S,14S)-11-(4-(1-(difluoromethyl)-1H-pyrazol-3-yl)-2,6-difluorobenzyl)-16,16,16-trifluoro-9-hydroxy-15,15-dimethyl-8-(4-((6-(9-methyl-3-oxa-7,9-diazabicyclo[3.3.1]nonan-7-yl)pyridin-3-yl)ethynyl)benzyl)-3,6,13-trioxo-5-(1,1,1-trifluoro-2-methylpropan-2-yl)-2-oxa-4,7,11,12-tetraazahexadecan-14-yl)carbamate] | 8.40 | 0.13 L/H/kg | 2.54 L/H/kg | –
6 | – | – | COC(=O)N[C@H](C(=O)NN(Cc1c(F)cc(-c2cn(C(F)F)cn2)cc1F)C[C@H](O)[C@H](Cc1ccc(C#Cc2ccc(N3CC4CCC(C3)N4C3COC3)nc2)cc1)NC(=O)[C@@H](NC(=O)OC)C(C)(C)C(F)(F)F)C(C)(C)C [Example 77, Methyl ((5S,8S,9S,14S)-11-(4-(1-(difluoromethyl)-1H-imidazol-4-yl)-2,6-difluorobenzyl)-9-hydroxy-15,15-dimethyl-8-(4-((6-(8-(oxetan-3-yl)-3,8-diazabicyclo [3.2.1]octan-3-yl)pyridin-3-yl)ethynyl)benzyl)-3,6,13-trioxo-5-(1,1,1-trifluoro-2-methylpropan-2-yl)-2-oxa-4,7,11,12-tetraazahexadecan-14-yl)carbamate] | 8.60 | <0.11 L/H/kg | 0.25 L/H/kg | –
7 | – | – | COC(=O)N[C@H](C(=O)N[C@@H](Cc1ccc(C#Cc2cnc(N3CC4CCC(C3)N4C3COC3)nc2)cc1)[C@@H](O)CN(Cc1ccc(-c2ccn(C(F)F)n2)cc1)NC(=O)[C@@H](NC(=O)OC)C(C)(C)C(F)(F)F)C(C)(C)C(F)(F)F [Example 122, Methyl ((5S,8S,9S,14S)-11-(4-(1-(difluoromethyl)-1H-pyrazol-3-yl)benzyl)-16,16,16-trifluoro-9-hydroxy-15,15-dimethyl-8-(4-((2-(8-(oxetan-3-yl)-3,8-diazabicyclo[3.2.1]octan-3-yl)pyrimidin-5-yl)ethynyl)benzyl)-3,6,13-trioxo-5-(1,1,1-trifluoro-2-methylpropan-2-yl)-2-oxa-4,7,11,12-tetraazahexadecan-14-yl)carbamate] | 8.34 | <0.11 L/H/kg | – | –
8 | – | – | COC(=O)N[C@H](C(=O)N[C@@H](Cc1ccc(C#Cc2ccc(N3CC4CCC(C3)N4C3COC3)nc2)cc1)[C@@H](O)CN(Cc1c(F)cc(-c2cnn(C(F)F)c2)cc1F)NC(=O)[C@@H](NC(=O)OC)C(C)(C)CF)C(C)(C)CF [Example 233, methyl ((5S,8S,9S,14S)-11-(4-(1-(difluoromethyl)-1H-pyrazol-4-yl)-2,6-difluorobenzyl)-16-fluoro-5-(1-fluoro-2-methylpropan-2-yl)-9-hydroxy-15,15-dimethyl-8-(4-((6-(8-(oxetan-3-yl)-3,8-diazabicyclo[3.2.1]octan-3-yl)pyridin-3-yl)ethynyl)benzyl)-3,6,13-trioxo-2-oxa-4,7,11,12-tetraazahexadecan-14-yl)carbamate] | 8.57 | <0.11 L/H/kg | <0.18 L/H/kg | –
9 | <0.11 L/H/kg | 0.28 L/H/kg | COC(=O)N[C@H](C(=O)N[C@@H](Cc1ccc(C#Cc2ccc(N3CCN(C4CCOC4)CC3)nc2)cc1)[C@@H](O)CN(Cc1c(F)cc(-c2cnn(C(F)F)c2)cc1F)NC(=O)[C@@H](NC(=O)OC)C(C)(C)C(F)(F)F)C(C)(C)C(F)(F)F (stereo partly drawn) [Example 114, Methyl ((5S,8S,9S,14S)-11-(4-(1-(difluoromethyl)-1H-pyrazol-4-yl)-2,6-difluorobenzyl)-16,16,16-trifluoro-9-hydroxy-15,15-dimethyl-3,6,13-trioxo-8-(4-((6-(4-(tetrahydrofuran-3-yl)piperazin-1-yl)pyridin-3-yl)ethynyl)benzyl)-5-(1,1,1-trifluoro-2-methylpropan-2-yl)-2-oxa-4,7,11,12-tetraazahexadecan-14-yl)carbamate] | 8.29 | – | – | –
10 | <0.11 L/H/kg | <0.18 L/H/kg | CC(C)([C@H](NC(=O)C1CC1)C(=O)N[C@@H](Cc1ccc(-c2cnn(C(F)F)c2)cc1)[C@@H](O)CN(Cc1c(F)cc(-c2cnn(C(F)F)c2)cc1F)NC(=O)[C@@H](NC(=O)C1CC1)C(C)(C)C(F)(F)F)C(F)(F)F [Example 214, N—((S)-1-(2-((2S,3S)-3-((S)-2-(cyclopropanecarboxamido)-4,4,4-trifluoro-3,3-dimethylbutanamido)-4-(4-(1-(difluoromethyl)-1H-pyrazol-4-yl)phenyl)-2-hydroxybutyl)-2-(4-(1-(difluoromethyl)-1H-pyrazol-4-yl)-2,6-difluorobenzyl)hydrazinyl)-4,4,4-trifluoro-3,3-dimethyl-1-oxobutan-2-yl)cyclopropanecarboxamide] | 7.91 | – | – | –
11 | 0.38 L/H/kg | 1.39 L/H/kg | COC(=O)N[C@H](C(=O)NN(Cc1c(F)cc(-c2ncccn2)cc1F)C[C@H](O)[C@H](Cc1ccc(C#Cc2ccc(N3C[C@H]4C[C@@H]3CN4C3COC3)nc2)cc1)NC(=O)[C@@H](NC(=O)OC)C(C)(C)C(F)(F)F)C(C)(C)C [Example 95] | – | – | – | 8.61

— patent US10294234B2, “HIV inhibitor compounds” (priority 2017, dated 2019)
